Measured values reported in the supplement of paper PMC4314810.
± gives the standard deviation of the averaged measurements.

tested on: MCF7; experiment: HRG-induced Akt activation (dPAkt = log2 pAkt/Akt HRG-stimulated minus log2 pAkt/Akt basal) (log2 ratio difference); higher = stronger HRG-induced Akt(T308) phosphorylation; conditions: miRNA mimic concentration 10 nM; time after transfection 72 h; heregulin 10 ng/ml; stimulation time 1 h
Summary of the method: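 Akt activation induced by heregulin was calculated as the difference between stimulated and unstimulated log ratios of phospho-Akt to total Akt, then averaged across replicates. The ratio was taken as log2(pAkt/Akt) from In-Cell Western readings of phospho-Akt(T308) and total Akt on an Odyssey, corrected for column-wise fixation decay. Before reading, MCF7 cells ([…], 96-well plates) transfected with 879 miRNA mimics at 10 nM final via Lipofectamine RNAiMax were, after 72 h, given 10 ng/ml heregulin-beta1 for 1 h or no stimulus, then fixed with 4% PFA. Two biological replicates were run.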

In order of falling “HRG-induced Akt activation (log2)” value:
1. GUGUCUGCUUCCUGUGGGA  2.6 ± 0.069
2. UGGAGUGUGACAAUGGUGUUUG  2.527 ± 0.012
3. CUUUUUGCGGUCUGGGCUUGC  2.31 ± 0.28
4. AACAGGUGACUGGUUAGACAA  2.3 ± 0.13
5. AACCAGCACCCCAACUUUGGAC  2.3 ± 0.14
6. CGGGGUUUUGAGGGCGAGAUGA  2.25 ± 0.089
7. AACAUUCAUUGUUGUCGGUGGGU  2.236 ± 0.017
8. UAGGUAGUUUCCUGUUGUUGGG  2.19 ± 0.23
9. UAUGUGGGAUGGUAAACCGCUU  2.19 ± 0.34
10. UGAGAACCACGUCUGCUCUGAG  2.16 ± 0.27
11. CAGUAACAAAGAUUCAUCCUUGU  2.1 ± 0.17
12. UAAGGUGCAUCUAGUGCAGUUAG  2.1 ± 0.024
13. UUUGAGGCUACAGUGAGAUGUG  2.06 ± 0.034
14. CAACUAGACUGUGAGCUUCUAG  2.04 ± 0.049
15. CAAAAAUCUCAAUUACUUUUGC  2.04 ± 0.028
16. AUAUAUGAUGACUUAGCUUUU  2.03 ± 0.027
17. CUCCAGAGGGAAGUACUUUCU  2.02 ± 0.14
18. AGAGUUGAGUCUGGACGUCCCG  1.98 ± 0.027
19. AAUGCACCCGGGCAAGGAUUCU  1.91 ± 0.056
20. AGGCAGUGUAUUGUUAGCUGGC  1.91 ± 0.036
21. AAAAGCUGGGUUGAGAGGGU  1.89 ± 0.17
22. CAGGCCAUAUUGUGCUGCCUCA  1.88 ± 0.66
23. UCGGAUCCGUCUGAGCUUGGCU  1.88 ± 0.18
24. AAGGAGCUUACAAUCUAGCUGGG  1.87 ± 0.21
25. AUCUGGAGGUAAGAAGCACUUU  1.83 ± 0.33
26. AGUAUGUUCUUCCAGGACAGAAC  1.83 ± 0.087
27. UGGGCGUAUCUGUAUGCUA  1.83 ± 0.1
28. UAAUCCUUGCUACCUGGGUGAGA  1.79 ± 0.047
29. AACUGGAUCAAUUAUAGGAGUG  1.79 ± 0.16
30. UACCCAGAGCAUGCAGUGUGAA  1.78 ± 0.12
31. GAGCCAGUUGGACAGGAGC  1.77 ± 0.38
32. CAAAGGUAUUUGUGGUUUUUG  1.74 ± 0.066
33. UGGGGAGCUGAGGCUCUGGGGGUG  1.74 ± 0.26
34. CUGAAGUGAUGUGUAACUGAUCAG  1.727 ± 0.0053
35. GUCCCUGUUCAGGCGCCA  1.73 ± 0.15
36. AUGGAUAAGGCUUUGGCUU  1.72 ± 0.027
37. CUCCUAUAUGAUGCCUUUCUUC  1.72 ± 0.36
38. ACUGCCCUAAGUGCUCCUUCUGG  1.72 ± 0.1
39. UCGAGGAGCUCACAGUCUAGU  1.71 ± 0.23
40. CAGGGAGGUGAAUGUGAU  1.71 ± 0.099
41. AACAUUCAACGCUGUCGGUGAGU  1.71 ± 0.13
42. GCAGCAGAGAAUAGGACUACGUC  1.7 ± 0.032
43. GGGGGUCCCCGGUGCUCGGAUC  1.7 ± 0.064
44. AGCUUCUUUACAGUGCUGCCUUG  1.68 ± 0.2
45. GCUACUUCACAACACCAGGGCC  1.67 ± 0.3
46. UCAGUAAAUGUUUAUUAGAUGA  1.671 ± 0.0072
47. UUUUGCGAUGUGUUCCUAAUAU  1.67 ± 0.12
48. ACUGCAUUAUGAGCACUUAAAG  1.66 ± 0.41
49. GCAGUCCAUGGGCAUAUACAC  1.66 ± 0.12
50. UAAUACUGCCUGGUAAUGAUGA  1.65 ± 0.49
51. UUUCCGGCUCGCGUGGGUGUGU  1.627 ± 0.015
52. UUCUCGAGGAAAGAAGCACUUUC  1.61 ± 0.16
53. UGCUUCCUUUCAGAGGGU  1.61 ± 0.34
54. UAGCAGCGGGAACAGUUCUGCAG  1.61 ± 0.1
55. AAGCCCUUACCCCAAAAAGCAU  1.6 ± 0.26
56. UCGUGCAUCCCUUUAGAGUGUU  1.6 ± 0.022
57. AAAAGUAUUUGCGGGUUUUGUC  1.58 ± 0.098
58. AGGCAGCGGGGUGUAGUGGAUA  1.58 ± 0.27
59. ACCGUGGCUUUCGAUUGUUACU  1.58 ± 0.11
60. UACAGUACUGUGAUAACUGAA  1.57 ± 0.14
61. AGAUCAGAAGGUGAUUGUGGCU  1.56 ± 0.3
62. GGGCGACAAAGCAAGACUCUUUCUU  1.56 ± 0.061
63. UAUGUGCCUUUGGACUACAUCG  1.56 ± 0.13
64. UGCCUACUGAGCUGAAACACAG  1.549 ± 0.007
65. ACAGUCUGCUGAGGUUGGAGC  1.54 ± 0.044
66. CAGCAGCACACUGUGGUUUGU  1.54 ± 0.46
67. CACACACUGCAAUUACUUUUGC  1.53 ± 0.053
68. CUCUAGAGGGAAGCGCUUUCUG  1.51 ± 0.15
69. UAACAGUCUCCAGUCACGGCC  1.5 ± 0.11
70. UAGUAGACCGUAUAGCGUACG  1.5 ± 0.21
71. CCUCAGGGCUGUAGAACAGGGCU  1.49 ± 0.21
72. GACUGACACCUCUUUGGGUGAA  1.49 ± 0.18
73. UGCAACGAACCUGAGCCACUGA  1.49 ± 0.14
74. AAUGACACGAUCACUCCCGUUGA  1.48 ± 0.35
75. UAUACAAGGGCAGACUCUCUCU  1.48 ± 0.24
76. UAGCACCAUUUGAAAUCAGUGUU  1.47 ± 0.15
77. GUCAGCGGAGGAAAAGAAACU  1.47 ± 0.037
78. UAAAUUUCACCUUUCUGAGAAGG  1.46 ± 0.22
79. CUUGGCACCUAGCAAGCACUCA  1.45 ± 0.58
80. UCACAAUGCUGACACUCAAACUGCUGAC  1.45 ± 0.48
81. UGAGUGCCGGUGCCUGCCCUG  1.43 ± 0.08
82. GAACGCGCUUCCCUAUAGAGGGU  1.42 ± 0.13
83. ACAAAGUGCUUCCCUUUAGAGUGU  1.41 ± 0.53
84. AAGCAUUCUUUCAUUGGUUGG  1.4 ± 0.014
85. CCAAAACUGCAGUUACUUUUGC  1.39 ± 0.13
86. AUUGAUCAUCGACACUUCGAACGCAAU  1.383 ± 0.0097
87. AAUAUAACACAGAUGGCCUGU  1.36 ± 0.25
88. CAACACCAGUCGAUGGGCUGU  1.34 ± 0.34
89. AAAAGUAAUUGCGAGUUUUACC  1.34 ± 0.091
90. CAUGGUUCUGUCAAGCACCGCG  1.34 ± 0.18
91. GUCCGCUCGGCGGUGGCCCA  1.34 ± 0.29
92. GUAGAGGAGAUGGCGCAGGG  1.33 ± 0.22
93. GUGGGGGAGAGGCUGUC  1.33 ± 0.25
94. CCAAUAUUGGCUGUGCUGCUCC  1.32 ± 0.36
95. ACUUCACCUGGUCCACUAGCCGU  1.3 ± 0.29
96. UGAGCGCCUCGACGACAGAGCCG  1.29 ± 0.043
97. UAUGGCUUUUUAUUCCUAUGUGA  1.27 ± 0.27
98. CUAUACAACCUACUGCCUUCCC  1.27 ± 0.16
99. UGAGCUAAAUGUGUGCUGGGA  1.26 ± 0.69
100. AGCCUGAUUAAACACAUGCUCUGA  1.23 ± 0.11
101. AACACACCUGGUUAACCUCUUU  1.23 ± 0.54
102. UGUAAACAUCCUCGACUGGAAG  1.22 ± 0.25
103. CAACAAAUCACAGUCUGCCAUA  1.2 ± 0.27
104. CCCUGUGCCCGGCCCACUUCUG  1.19 ± 0.05
105. AAAUCUCUGCAGGCAAAUGUGA  1.19 ± 0.11
106. AUUCCUAGAAAUUGUUCAUA  1.18 ± 0.4
107. UAAGUGCUUCCAUGUUUGAGUGU  1.17 ± 0.15
108. UAGCACCAUUUGAAAUCGGUUA  1.17 ± 0.57
109. UCCUGCGCGUCCCAGAUGCCC  1.15 ± 0.34
110. AAUUGCACGGUAUCCAUCUGUA  1.15 ± 0.15
111. UCUGCUCAUACCCCAUGGUUUCU  1.15 ± 0.24
112. AACGCCAUUAUCACACUAAAUA  1.14 ± 0.04
113. CUUCUUGUGCUCUAGGAUUGU  1.13 ± 0.024
114. UUGUGCUUGAUCUAACCAUGU  1.1 ± 0.016
115. UAAUACUGCCGGGUAAUGAUGGA  1.08 ± 0.34
116. UGUUCAUGUAGAUGUUUAAGC  1.08 ± 0.15
117. UAUUGCACAUUACUAAGUUGCA  1.07 ± 0.077
118. ACUGCUGAGCUAGCACUUCCCG  1.04 ± 0.26
119. GUGAAUUACCGAAGGGCCAUAA  1.03 ± 0.12
120. CUUCCUCGUCUGUCUGCCCC  1.02 ± 0.055
121. CAGUGCAAUAGUAUUGUCAAAGC  1.02 ± 0.51
122. CAAAGCGCUCCCCUUUAGAGGU  1.02 ± 0.045
123. UCUACAAAGGAAAGCGCUUUCU  1.02 ± 0.55
124. UUGGCCACAAUGGGUUAGAAC  1.02 ± 0.1
125. AUCCCUUGCAGGGGCUGUUGGGU  1.02 ± 0.69
126. UACUGCAGACGUGGCAAUCAUG  1 ± 0.63
127. AUAUAAUACAACCUGCUAAGUG  0.999 ± 0.15
128. UUCUCAAGGAGGUGUCGUUUAU  0.993 ± 0.67
129. AAAGUGCUUCCUUUUUGAGGG  0.963 ± 0.46
130. GUCAUACACGGCUCUCCUCUCU  0.922 ± 0.81
131. AAGUGCCGCCAUCUUUUGAGUGU  0.888 ± 0.34
132. AAACCUGUGUUGUUCAAGAGUC  0.883 ± 0.023
133. UAGUGCAAUAUUGCUUAUAGGGU  0.808 ± 0.069
134. AGUGUGGCUUUCUUAGAGC  0.799 ± 1.1
135. UUAAUGCUAAUCGUGAUAGGGGU  0.789 ± 0.062
136. UGUAAACAUCCUACACUCAGCU  0.757 ± 0.3
137. AAAGUGCUUCCUUUUAGAGGGU  0.665 ± 0.11
138. UGGCUCAGUUCAGCAGGAACAG  0.611 ± 0.18
139. UGGAGUCCAGGAAUCUGCAUUUU  0.279 ± 0.71
